Positions of bridges follow the written chain, without caps; N, C: chain ends. Non-standard residues stand in square brackets, D forms with d. Residues, ends and D or L forms follow the SMILES beside them.
Legend:
[1] = In vitro plasma stability in heparin-treated fresh rat plasma at 37° C.; type: in vitro ADME; conditions: for AUC0-240: time 0 to 240 minutes; for remaining at 1 min, 1 μM / remaining at 5 min, 1 μM / remaining at 0.25 h, 1 μM / remaining at 0.5 h, 1 μM / remaining at 1 h, 1 μM / remaining at 2 h, 1 μM: heparin-treated fresh rat plasma
Method: GPR-397 and GPR-405 were independently added to fresh rat plasma at a final in-vial concentration of 1 μM. The peptides were incubated in a water bath at 37° C. over a time course that included the following points (in minutes): 0, 1, 5, 15, 30, 60, 120, 240, and 1440. After the incubation time was completed, a 50 μL aliquot of plasma was removed and proteins were precipitated using a solution containing internal standard (THR-123 at 150 ng/mL) in methanol with 0.5% acetic acid (v/v). The samples were centrifuged at 13,000 RPM for 5 minutes, and a 100 μL aliquot of supernatant was removed and transferred to a 96-well plate containing 100 μL of reconstitution solution (Water/MeOH/Acetic Acid/TFA, 60/40/0.2/0.05, v/v/v/v). A calibration curve and quality control (QC) samples were prepared in parallel in the same manner as the incubation samples. The calibration range for this assay was from 0.02 to 2.0 μM in rat plasma. The extracted calibrants, QC, and incubation samples were injected onto an AB SCIEX API 2000 LC-MS/MS system. Chromatographic separation was performed using a reversed-phase C18 HPLC column (Ace-3 C18, 30×2.1 mm, 3 μm). The solvent system consisted of Milli-Q water, acetonitrile and formic acid. Analyte and internal standard were detected using the multiple reaction monitoring (MRM) scan mode. Calibration curves were generated by using a weighted (1/concentration) quadratic regression analysis of the peak area ratios (analyte/internal standard) versus the nominal concentration of the calibration standards. The concentration of the analyte in the incubation samples was determined by back-calculating the peak area ratios obtained using the quadratic regression.
FIGS. 9-12 compare the in vitro plasma stability results for GPR-405 and THR-123 incubated in fresh rat plasma treated with heparin. FIG. 9 provides a scatter plot showing the first 240 minutes of the time-course and disappearance of the THR peptides in heparin-treated fresh rat plasma at 37° C. […] FIG. 12 compares the calculated half-life of THR-123 and GPR-405.

Ex-vivo plasma stability = type: in vitro ADME, mouse or rat; conditions: fresh plasma 37° C., 1 μM
Method: Test article is added to fresh mouse or rat plasma at a final in-vial concentration of 1 μM. The peptide is incubated in a water bath at 37° C. over a time course that included the following points (in minutes): 0, 15, 30, 60, 120, 240, and 1440. After the incubation time is completed, a 50 μL aliquot of plasma is removed and proteins are precipitated using a solution containing internal standard (THR-123 at 150 ng/mL) in methanol with 0.5% acetic acid (v/v). The samples are centrifuged at 13,000 RPM for 5 minutes, and a 100 μL aliquot of supernatant is removed and transferred to a 96-well plate containing 200 μL of reconstitution solution (Water/MeOH/Acetic Acid/TFA, 60/40/0.2/0.05, v/v/v/v). A calibration curve and quality control (QC) samples are prepared in parallel in the same manner as the incubation samples. The calibration range for this assay is from 0.02 to 2.0 μM in rat or mouse plasma. The extracted calibrants, QC, and incubation samples are injected onto an AB SCIEX API 2000 LC-MS/MS system. Chromatographic separation is performed using a reversed-phase C18 HPLC column (Ace-3 C18, 30×2.1 mm, 3 μm). The solvent system consists of Milli-Q water, acetonitrile and formic acid. Analyte and internal standard are detected using the multiple reaction monitoring (MRM) scan mode. Calibration curves are generated by using a weighted (1/concentration) quadratic regression analysis of the peak area ratios (analyte/internal standard) versus the nominal concentration of the calibration standards. The concentration of the analyte in the incubation samples is determined by back-calculating the peak area ratios obtained using the quadratic regression.

[2] = THR-123 i.v. in rodents: half-life and metabolites in plasma and kidney tissue; type: in vivo, rat
Text: The main metabolite VII results from a proteolytic cleavage between positions 14 and 15 (VII in FIG. 2). The structure of each metabolite was confirmed by synthesis and analytical characterization.

[3] = fresh rat plasma 37° C., 1 μM peptide, 0 min
[4] = fresh rat plasma 37° C., 1 μM peptide, 1 min
[5] = fresh rat plasma 37° C., 1 μM peptide, 5 min
[6] = fresh rat plasma 37° C., 1 μM peptide, 15 min
[7] = fresh rat plasma 37° C., 1 μM peptide, 30 min
[8] = fresh rat plasma 37° C., 1 μM peptide, 60 min
[9] = fresh rat plasma 37° C., 1 μM peptide, 120 min
[10] = fresh rat plasma 37° C., 1 μM peptide, 240 min
[11] = fresh rat plasma 37° C., 1 μM peptide, 240 min (4 hours), read-out: TI remaining
[12] = fresh rat plasma 37° C., 1 μM peptide
[13] = fresh rat plasma 37° C., 1 μM peptide, 1 min, read-out: TI remaining
[14] = fresh rat plasma 37° C., 1 μM peptide, 5 min, read-out: TI remaining
[15] = fresh rat plasma 37° C., 1 μM peptide, 15 min, read-out: TI remaining
[16] = fresh rat plasma 37° C., 1 μM peptide, 30 min, read-out: TI remaining
[17] = fresh rat plasma 37° C., 1 μM peptide, 60 min, read-out: TI remaining
[18] = fresh rat plasma 37° C., 1 μM peptide, 120 min, read-out: TI remaining
[19] = fresh rat plasma 37° C., 1 μM peptide, 1440 min
[20] = fresh rat plasma treated with heparin in vitro at 37° C.

SMILES: CC(C)C[C@@H]1NC(=O)[C@H](C(C)C)NC(=O)[C@H](CC(N)=O)NC(=O)[C@H](CO)NC(=O)[C@H](CO)NC(=O)[C@H](CC(=O)O)NC(=O)[C@H](CC(=O)O)NC(=O)[C@H](Cc2ccccc2)NC(=O)[C@H](Cc2ccc(O)cc2)NC(=O)[C@@H](N)CSSC[C@@H](C(=O)N[C@@H](CCCCN)C(=O)N[C@@H](CCCCN)C(=O)N[C@@H](Cc2ccc(O)cc2)C(=O)N[C@@H](CCCNC(=N)N)C(=O)N[C@@H](CO)C(=O)O)NC1=O [THR-123, Cys-Tyr-Phe-Asp-Asp-Ser-Ser-Asn-Val-Leu-Cys-Lys-Lys-Tyr-Arg-Ser] (H-CYFDDSSNVLCKKYRS-OH; disulfide 1-11)
- Mean plasma concentration [1, 3]: 905 nM
- Sample 1 plasma concentration [1, 3]: 0.970 µM
- Sample 2 plasma concentration [1, 3]: 0.840 µM
- TI remaining [1, 3]: 100%
- Mean plasma concentration [1, 4]: 855 nM
- Sample 1 plasma concentration [1, 4]: 0.850 µM
- Sample 2 plasma concentration [1, 4]: 0.860 µM
- Mean plasma concentration [1, 5]: 295 nM
- Sample 1 plasma concentration [1, 5]: 0.300 µM
- Sample 2 plasma concentration [1, 5]: 0.290 µM
- Mean plasma concentration [1, 6]: 55 nM
- Sample 1 plasma concentration [1, 6]: 0.060 µM
- Sample 2 plasma concentration [1, 6]: 0.050 µM
- Mean plasma concentration [1, 7]: 30 nM
- Sample 1 plasma concentration [1, 7]: 0.060 µM
- Sample 2 plasma concentration [1, 7]: 0.030 µM
- Mean plasma concentration [1, 8]: 25 nM
- Sample 1 plasma concentration [1, 8]: 0.026 µM
- Sample 2 plasma concentration [1, 8]: 0.024 µM
- Mean plasma concentration [1, 9]: 18 nM
- Sample 1 plasma concentration [1, 9]: 0.015 µM
- Sample 2 plasma concentration [1, 9]: 0.020 µM
- Mean plasma concentration [1, 10]: 11 nM
- Sample 1 plasma concentration [1, 10]: 0.010 µM
- Sample 2 plasma concentration [1, 10]: 0.011 µM
- remaining at 4 h [1, 11]: 1.2%
- AUC0-240 [1, 12]: 15.65 μM* min/ml
- remaining at 1 min, 1 μM [1, 13]: 94.4%
- remaining at 5 min, 1 μM [1, 14]: 32.4%
- remaining at 0.25 h, 1 μM [1, 15]: 6.4%
- remaining at 0.5 h, 1 μM [1, 16]: 3.3%
- remaining at 1 h, 1 μM [1, 17]: 2.8%
- remaining at 2 h, 1 μM [1, 18]: 1.9%
- remaining at 1 h (Ex-vivo plasma stability; 60 min, read-out: Percent remaining 60 min): 3.4%
- remaining at 2 h (Ex-vivo plasma stability; 120 min, read-out: Percent remaining 120 min): 2.3%
- half-life in plasma and kidney tissue ([2]; administered intravenously to rodents, FIG. 1): short half-life
- metabolites identified in the kidney ([2]; rat kidney tissue, ten minutes post i.v. administration, FIG. 2): metabolites VI, VII, VIII and IX

SMILES: CC(C)C[C@@H]1NC(=O)[C@H](C(C)C)NC(=O)[C@H](CCC(N)=O)NC(=O)[C@H](CO)NC(=O)[C@H](CO)NC(=O)[C@H](CC(N)=O)NC(=O)[C@H](Cc2ccccc2)NC(=O)[C@H](Cc2ccc(O)cc2)NC(=O)[C@H](Cc2ccc(O)cc2)NC(=O)[C@@H](N)CSSC[C@@H](C(=O)N[C@@H](CCCCN)C(=O)N[C@@H](CCCNC(=N)N)C(=O)N[C@H](Cc2ccc(O)cc2)C(=O)N[C@@H](CCCNC(=N)N)C(=O)N[C@@H](CO)C(=O)O)NC1=O [GPR-405, Cys-Tyr-Tyr-Phe-Asn-Ser-Ser-Gln-Val-Leu-Cys-Lys-Arg-(D)Tyr-Arg-Ser] (H-CYYFNSSQVLCKR[dY]RS-OH; disulfide 1-11)
- Mean plasma concentration [1, 3]: 1095 nM
- Sample 1 plasma concentration [1, 3]: 1.100 µM
- Sample 2 plasma concentration [1, 3]: 1.090 µM
- TI remaining [1, 3]: 100%
- Mean plasma concentration [1, 4]: 1065 nM
- Sample 1 plasma concentration [1, 4]: 1.080 µM
- Sample 2 plasma concentration [1, 4]: 1.050 µM
- Mean plasma concentration [1, 5]: 1105 nM
- Sample 1 plasma concentration [1, 5]: 1.090 µM
- Sample 2 plasma concentration [1, 5]: 1.120 µM
- Mean plasma concentration [1, 6]: 1065 nM
- Sample 1 plasma concentration [1, 6]: 1.080 µM
- Sample 2 plasma concentration [1, 6]: 1.050 µM
- TI remaining [1, 6]: 97.3%
- Mean plasma concentration [1, 7]: 1002 nM
- Sample 1 plasma concentration [1, 7]: 0.963 µM
- Sample 2 plasma concentration [1, 7]: 1.040 µM
- Mean plasma concentration [1, 8]: 934 nM
- Sample 1 plasma concentration [1, 8]: 0.895 µM
- Sample 2 plasma concentration [1, 8]: 0.973 µM
- Mean plasma concentration [1, 9]: 826 nM
- Sample 1 plasma concentration [1, 9]: 0.836 µM
- Sample 2 plasma concentration [1, 9]: 0.815 µM
- Mean plasma concentration [1, 10]: 538 nM
- Sample 1 plasma concentration [1, 10]: 0.534 µM
- Sample 2 plasma concentration [1, 10]: 0.541 µM
- TI remaining ([1]; fresh rat plasma 37° C., 1 μM peptide, 240 min (4 hours)): 49.1%
- remaining at 4 h [1, 11]: 49.1%
- Mean plasma concentration [1, 19]: 75 nM
- Sample 1 plasma concentration [1, 19]: 0.081 µM
- Sample 2 plasma concentration [1, 19]: 0.068 µM
- TI remaining ([1]; fresh rat plasma 37° C., 1 μM peptide, 1440 min (24 hours)): 6.8%
- remaining at 24 h ([1]; fresh rat plasma 37° C., 1 μM peptide, 1440 min (24 hours), read-out: TI remaining): 6.8%
- AUC0-240 [1, 12]: 195.4 μM* min/ml
- measured half-life relative to that of THR-123 [1, 20]: about 100 times
- stability compared with THR-123 [1, 20]: dramatically more stable than THR-123
- remaining at 1 min, 1 μM [1, 13]: 97.3%
- remaining at 5 min, 1 μM [1, 14]: 101%
- remaining at 0.25 h, 1 μM [1, 15]: 97.3%
- remaining at 0.5 h, 1 μM [1, 16]: 91.5%
- remaining at 1 h, 1 μM [1, 17]: 85.3%
- remaining at 2 h, 1 μM [1, 18]: 75.4%
